pIC50: −log10 of the molar value. Marks after values point to notes of the source that are not given here.
How the values were obtained:
[1] = test system: advanced solid tumors (HPV-positive tumors); experiment: Phase 1 open-label clinical trial of Compound 1; assay type: in vivo, human
Description: This study is a Phase 1, open-label, dose-finding study for Compound 1 (see Table 1, supra). Eligible participants enrolled will receive Compound 1 as an oral tablet (50-mg, 100-mg, or 400-mg) during 21-day or 28-day cycles until disease progression, unacceptable toxicity, death, withdrawal of consent, or any other reason. Continuous treatment administration may be once daily (QD) or twice daily (BID).
Following a dose escalation study to identify a pharmacological active dose, this trial will enroll up to 60 participants with HPV-positive tumors at 1 or more pharmacologically active dose (PAD) doses to further evaluate safety, efficacy, PK, and pharmacodynamic effects. A maximum of 20 participants may be enrolled per dose level. Participants must have HPV-positive tumors as determined by a local laboratory using p16 IHC, polymerase chain reaction methods, or other locally-available method to detect HPV.
Participants are eligible to be included in the study only if all of the following criteria apply: • 1. Male and female participants must be ≥ 18 years of age at the time of signing the ICF. • 2. Ability to comprehend and willingness to sign an ICF. • 3. Must be willing and able to conform to and comply with all Protocol requirements, including all scheduled visits, Protocol procedures, and the ability to swallow oral medication. • 4. Histologically confirmed advanced solid tumors with measurable lesions (per RECIST v1.1 or RANO for primary brain tumors) that are considered nonamenable to surgery or other curative treatments or procedures. […] Participants must have disease progression after treatment with available therapies that are known to confer clinical benefit or who are intolerant to or ineligible for standard treatment. • 6. Willingness to undergo a tumor biopsy to obtain tumor tissue. • 7. Eastern Cooperative Oncology Group performance status score of 0 or 1. • 8. Life expectancy > 12 weeks. • 9. Willingness to avoid pregnancy or fathering children. • 10. For the cohort participating in the extension to participants with HPV-positive solid tumors: any HPV-positive solid tumor which has received prior standard therapy.
Adult patients (≥18 years) with advanced solid tumors were enrolled into this open-label study. Patients had disease progression after standard available therapy, or were intolerant of, or ineligible for standard treatment. Measureable disease was required. A modified 3+3 dose escalation design was employed, followed by dose expansions. The primary endpoints were safety and tolerability of Compound 1, identification of a pharmacologically active dose and/or maximum tolerated dose, and confirmation of the recommended Phase 2 dose. Secondary endpoints included PK, pharmacodynamics, and efficacy as assessed by investigator-determined objective response and disease control rates (complete response (CR), partial response (PR), or stable disease (SD)).
Patients that were confirmed to have HPV+ or confirmed to be HPV- are indicated below. Patients of unknown HPV status are also indicated.

[2] = molecular target: T1, PD-⅟PD-L1 (recombinant human PD-L1 protein and human PD-1 protein) (Homo sapiens, UniProt Q9NZQ7); experiment: Homogeneous Time-Resolved Fluorescence (HTRF) PD-1/PD-L1 binding assay; settings: 3 nM PD1, 10 nM PD-L1, 25° C., PBS pH 7.4
T1 construct: Recombinant human PD-L1 protein (19-238) with a His-tag at the C-terminus; purchased AcroBiosystems PD1-H5229 (PD-L1); PD1-H5257 (PD-1)

[3] = Anal, Confirmed HPV+, 400 mg BID
[4] = Anal, Total (all HPV status), 400 mg BID
[5] = Anal, Unknown HPV status, 400 mg BID
[6] = Cervical, Confirmed HPV+, 400 mg BID
[7] = Cervical, Total (all HPV status), 400 mg BID
[8] = Total of tumor types, Confirmed HPV+
[9] = Total of tumor types, Total (all HPV status)
[10] = Total of tumor types, Unknown HPV status

T1 sequence (Q9NZQ7 19-238): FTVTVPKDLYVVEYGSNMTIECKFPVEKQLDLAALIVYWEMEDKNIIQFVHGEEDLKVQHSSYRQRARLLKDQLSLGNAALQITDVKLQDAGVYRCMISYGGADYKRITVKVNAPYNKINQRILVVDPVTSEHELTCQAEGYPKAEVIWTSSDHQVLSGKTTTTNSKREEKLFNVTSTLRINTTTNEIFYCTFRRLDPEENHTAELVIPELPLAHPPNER

SMILES: Cc1c(Nc2nccc3cc(CN4CC[C@@H](O)C4)cnc23)cccc1-c1cccc(-c2nc3cc(CN4CC[C@@H](C(=O)O)C4)cc(C#N)c3o2)c1C [Compound 1, (R)-1-((7-cyano-2-(3′-(3-(((R)-3-hydroxypyrrolidin-1-yl)methyl)-1,7-naphthyridin-8-ylamino)-2,2′-dimethylbiphenyl-3-yl)benzo[d]oxazol-5-yl)methyl)pyrrolidine-3-carboxylic acid]
- ORR based on PR or CR ([1]; 14 evaluable patients, 400 mg BID or 800 mg BID, factoring in responses in patients with unknown HPV status): about 28.6%
- number of patients with PD [1, 3]: 1
- number of patients with SD [1, 3]: 1
- number of patients with PR/CR ([1]; Anal, Confirmed HPV+, patient received 800 mg BID): 1^a
- number of patients with PD [1, 4]: 3
- number of patients with SD [1, 4]: 2
- number of patients with PR/CR ([1]; Anal, Total (all HPV status), 400 or 800 mg BID): 3
- number of patients with PD [1, 5]: 2
- number of patients with SD [1, 5]: 1
- number of patients with PR/CR ([1]; Anal, Unknown HPV status, 1 out of 2 patients received 800 mg BID): 2^b
- number of patients with PD [1, 6]: 2
- number of patients with SD [1, 6]: 1
- number of patients with PD [1, 7]: 2
- number of patients with SD [1, 7]: 1
- number of patients with PD ([1]; HNSCC, Confirmed HPV-, patient received 800 mg BID): 1^a
- number of patients with PD ([1]; HNSCC, Total (all HPV status)): 1
- number of patients with SD ([1]; Penile, Confirmed HPV+, 400 mg BID): 1
- number of patients with SD ([1]; Penile, Total (all HPV status), 400 mg BID): 1
- number of patients with PD [1, 8]: 3
- number of patients with PR/CR [1, 8]: 2
- number of patients with SD [1, 8]: 3
- number of patients with PD ([1]; Total of tumor types, Confirmed HPV-): 1
- number of patients with PD [1, 9]: 6
- number of patients with PR/CR [1, 9]: 4
- number of patients with SD [1, 9]: 4
- number of patients with PD [1, 10]: 2
- number of patients with PR/CR [1, 10]: 2
- number of patients with SD [1, 10]: 1
- number of patients with PR/CR ([1]; Vaginal, Confirmed HPV+, 400 mg BID): 1
- number of patients with PR/CR ([1]; Vaginal, Total (all HPV status), 400 mg BID): 1

SMILES: Cn1c(C(=O)Nc2cccc(-c3cccc(NC(=O)c4nc5c(n4C)CCN(CCC46CCC(C(=O)O)(CC4)C6)C5)c3Cl)c2Cl)nc2c1CCN(CCC13CCC(C(=O)O)(CC1)C3)C2 [Compound 30, 4,4′-(((((2,2′-dichloro-[1,1′-bipheiryl]-3,3′-diyl)bis(azanediyl))bis(carbonyl))bis(1-methyl-1,4,6,7-tetrahydro-5H-imidazo[4,5-c]pyridine-2,5-diyl))bis(ethane-2,1-diyl))bis(bicyclo[2.2.1]heptane-1-carboxylic acid)]
- pIC50 [2]: > 8.00

Reference: US20230149409A1, “TREATMENT OF HUMAN PAPILLOMAVIRUS-ASSOCIATED CANCERS BY PD-L1 INHIBITORS” (priority 2021, published 2023)
